Data as given in ChEMBL document CHEMBL1148029, “Synthesis and radiopharmacological characterization of 2beta-carbo-2'-[18F]fluoroethoxy-3beta-(4-bromo-phenyl)tropane ([18F]MCL-322) as a PET radiotracer for imaging the dopamine transporter (DAT)” (Bioorg Med Chem, 2007).

Experiments:
Format in all cases: ADME, organism-based
[1] = Biodistribution in Wistar rat hair and skin at 300 uCi, iv after 120 mins; conditions: in vivo, 2 h
Striatum = test: Biodistribution in Wistar rat striatum at 300 uCi, iv after 60 mins in presence of nisoxetine; conditions: in vivo, 1 h
Muscle tissue = test: Biodistribution in Wistar rat muscle at 300 uCi, iv after 120 mins; conditions: in vivo, 2 h
Hippocampus = test: Biodistribution in Wistar rat hippocampus at 300 uCi, iv after 240 mins; conditions: in vivo, 4 h
Cortex = test: Biodistribution in Wistar rat cortex at 300 uCi, iv after 20 mins; conditions: in vivo
Lung = test: Biodistribution in Wistar rat lung at 300 uCi, iv after 60 mins; conditions: in vivo, 1 h
Pancreas = test: Biodistribution in Wistar rat pancreas at 300 uCi, iv after 240 mins; conditions: in vivo, 4 h
[2] = Biodistribution in Wistar rat hair and skin at 300 uCi, iv after 60 mins; conditions: in vivo, 1 h

Work on `CN1C2CCC1C(C(=O)OCC[18F])C(c1ccc(Br)cc1)C2` (stereo not drawn) yielded a Drug uptake [1] of 0.17 % ID/g, a Drug uptake (Striatum) of 4.18 % ID/g and a Drug uptake (Muscle tissue) of 0.09 % ID/g. It also gave a Drug uptake (Hippocampus) of 0.18 % ID/g, a Drug uptake (Cortex) of 2.29 % ID/g and a Drug uptake (Lung) of 1.14 % ID/g. It also gave a Drug uptake (Pancreas) of 0.13 % ID/g and a Drug uptake [2] of 0.29 % ID/g.
